Like-named read-outs stand apart in the source and are kept apart here.

We go through eight compounds from article PMC9822168, “The Use of Flavylium Salts as Dynamic Inhibitor Moieties for Human Cb5R” (Molecules, 2022).

The target in data set [1] is NADH: ferricytochrome b5 reductase. Details: method as in PMID 22542668. The note with it: cited from earlier work; for IC50: read-out: IC50 against NADH: ferricytochrome b5 reductase.
Data set [2] has as its target T1, Cb5R in rat liver microsomes (Rattus norvegicus, UniProt P20070).
T1 construct: testing the action of compounds 1 and 5 against the Cb5R present in rat liver microsomes; from tissue; host or cells: rat liver microsomes
T1 sequence (P20070 1-301): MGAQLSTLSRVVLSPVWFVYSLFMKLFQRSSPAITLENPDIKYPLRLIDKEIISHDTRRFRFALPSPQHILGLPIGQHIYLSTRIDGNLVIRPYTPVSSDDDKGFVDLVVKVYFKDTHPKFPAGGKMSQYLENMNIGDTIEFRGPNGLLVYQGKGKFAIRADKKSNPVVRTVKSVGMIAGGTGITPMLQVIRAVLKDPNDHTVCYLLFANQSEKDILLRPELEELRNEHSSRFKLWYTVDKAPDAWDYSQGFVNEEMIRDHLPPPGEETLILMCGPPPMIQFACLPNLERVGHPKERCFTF
In words: NADH: ferricyanide reductase activity in rat liver microsomes. The data set is classed as biochemical. The note with it: for inhibition at 40 µM: 40 µM compound; for IC50: microsomes 5.6 µg/mL of protein; for Maximum inhibition of NADH: ferricyanide reductase activity in microsomes, E form / Maximum inhibition of NADH: ferricyanide reductase activity in microsomes, NE form: up to 100 µM compound. As for the experimental part: To further assess the biological relevance of the tested compounds as inhibitors of the Cb5R, we measure the inhibition dependence of the NADH: ferricyanide reductase activity in rat liver microsomes (Figure 6a). All tested compounds follow a dose-dependent effect on this activity, although the maximum inhibition achieved for them was not the same as measured with the purified recombinant enzyme.
(§1) Livers were obtained from add livitum rats. Microsomes were prepared as previously performed, with slight differences. […] Buffer (3 mL) was used per gram of liver tissue. After homogenization, the lysate was centrifuged at 960× g for 10 min at 4 °C. The supernatant was collected and centrifuged at 9800× g for 20 min at 4 °C. Finally, the supernatant was centrifuged at 53170× g for 60 min at 4 °C. The microsomal sediment was resuspended in the same buffer and frizzed at −80 °C until use.
(In general: Microsomes from liver hold many membrane-bound enzymes, among them those of drug oxidation.)

The target in data set [3] is T1, Cb5R in rat liver microsomes. As to the kind of experiment: NADH: Cb5 reductase activity of rat liver microsomes. The note with it: 40 µM compound, Cb5 5 μM, NADH 150 μM. The data set is classed as biochemical. As for the experimental part: We measured the inhibition of the NADH: Cb5 reductase activity with a fixed concentration of the compounds (Figure 6b) and compared the values with those of the NADH: ferricyanide reductase activity in microsomes (Figure 6a).
as §1

Data set [4] addresses T2, Cb5R from microsomes (Rattus norvegicus, UniProt P20070).
T2 construct: testing the action of compounds 1 and 5 against the Cb5R present in rat liver microsomes; from tissue; host or cells: rat liver microsomes
T2 sequence (P20070 1-301): T1 sequence (P20070 1-301)
In words: NADH-dependent superoxide anion production (NADH: NBT reductase activity sensitive to SOD and CAT) of microsomes. Format: biochemical. The note with it: microsomes 5.2 µg/mL, without compound 2.3 ± 0.1; for Superoxide anion production of microsomes in presence of compound, NE form: non-equilibrated. As for the experimental part:
Finally, we measured the effect of compounds 1 and 5 on the previously described NADH-dependent superoxide anion production of the Cb5R by quantifying the inhibitory effect of the compounds on the NADH: nitro blue tetrazolium (NBT) reductase activity of Cb5R from microsomes sensitive to superoxide dismutase (SOD) and catalase (CAT) (Figure 6c). The NADH: NBT reductase activity of Cb5R measured with microsomes (5.2 µg/mL) was 4.4 ± 0.1 µM/min.

Data set [5] can be described thus: UV-vis spectra of species interconversion in phosphate buffer pH 7.0. Format: physicochemical. The note with it: 24 h in phosphate buffer pH 7.0, relative to value after 2 min incubation. As for the experimental part: The stock solutions of the flavylium compounds were prepared in dimethyl sulfoxide (DMSO): H2O (99:1) containing 0.1M of HCl. To estimate the predominant species of the used compounds (Figure 1), 10 µL of stock solution of each compound was added to potassium phosphate buffer at pH 7.0. The UV-vis spectra were recorded immediately (Figure S1, black lines) and after 2 min (red lines). […] The spectral signatures, i.e., the observation of absorption bands in the visible and UV-vis regions, pointed out the existence of the quinoidal base and colorless hemiketal/chalcone species mixtures under non-equilibrated conditions.
Stock solutions of compounds at acid pH values (non-equilibrated (NE) in the media) and by incubation in phosphate buffer at pH 7.0 for 24 h were prepared, and their UV-vis was measured in phosphate buffer pH 7.0. As expected, the mole fraction of the quinoidal base of compounds 1 and 5 partially disappeared, leading to the formation of the respective trans-chalcone species after a 24 h incubation in phosphate buffer at pH 7.0 (Supplementary Figure S2). We monitored the spectra of compounds 1 and 5 (black and grey line, respectively) after immediate addition into phosphate buffer pH 7.0 (continuous line) or after incubation in this buffer for 24 h (dotted line). […]

Where [6] appears, read: equilibrated, read-out: Inhibition of NADH: ferricyanide reductase activity of microsomes, E form.
Setting [7] is: non-equilibrated, read-out: Inhibition of NADH: ferricyanide reductase activity of microsomes, NE form.
Where [8] appears, read: equilibrated, read-out: IC50, NADH: ferricyanide reductase activity of microsomes, E form.
Where [9] appears, read: equilibrated, read-out: Inhibition of NADH: Cb5 reductase activity of microsomes, E form.
[10] abbreviates: non-equilibrated, read-out: Inhibition of NADH: Cb5 reductase activity of microsomes, NE form.

Turning to `Oc1cc(O)c2c(c1)O[C@H](c1ccc(O)c(O)c1)[C@@H](O)C2` [catechin], the IC50 (as a rule, the concentration needed to halve the response being measured) in data set [1] is 4.5 µM.

With `O=c1c(O)c(-c2ccc(O)c(O)c2)oc2cc(O)cc(O)c12` [quercetin], in data set [1], the IC50 is 1.1 µM.

Regarding `Oc1ccc(-c2ccc3ccc(O)cc3[o+]2)cc1` [Compound 1], the inhibition (usually the share of the control response that was lost under treatment) at 40 µM in data set [2] (setting [6]) is 63.4 ± 3.6%; in data set [2] (setting [7]), 4.6 ± 4%; in data set [3] (setting [9]), 58.8 ± 1.5%; in data set [3] (setting [10]) it was 25 ± 5.3%. In addition, the IC50 in data set [2] (setting [8]) amounted to 18 ± 3.8 µM. Also, the “Maximum inhibition of NADH: ferricyanide reductase activity in microsomes, E form” value in data set [2] (equilibrated) was determined as 85 ±2%. The “Maximum inhibition of NADH: ferricyanide reductase activity in microsomes, NE form” value in data set [2] (non-equilibrated) turned out to be 11 ±7%. Also, the “Superoxide anion production of microsomes in presence of compound, E form” value in data set [4] (equilibrated) is listed as 1.4 ± 0.1 µM/min. Besides, the “Superoxide anion production of microsomes in presence of compound, NE form” value in data set [4] turned out to be 1.7 ± 0.1 µM/min. For the same compound, the “Quinoidal base disappeared, forming the trans-chalcone” value in data set [5] was “ca. 40%”.

For the compound `O=C1C[C@@H](c2ccc(O)cc2)Oc2cc(O)cc(O)c21` [Naringenin], the “Inhibition of Cb5R in vitro” value in data set [1] (in vitro studies) was “did not inhibit”.

As to `Oc1ccc2ccc(-c3ccc(O)c(O)c3)[o+]c2c1` [Compound 5], the inhibition at 40 µM came out at 81.8 ± 2.3% in data set [2] (setting [6]), 71 ± 4.7% in data set [2] (setting [7]), 80.6 ± 0.8% in data set [3] (setting [9]) and 65.6 ± 2.9% in data set [3] (setting [10]). The IC50 in data set [2] (setting [8]) is 3.3 ± 0.4 µM; in data set [2] (non-equilibrated, read-out: IC50, NADH: ferricyanide reductase activity of microsomes, NE form), 8 ± 2.2 µM. The “Maximum inhibition of NADH: ferricyanide reductase activity in microsomes, E form” value in data set [2] (equilibrated) came out at 81 ± 2%. In data set [2] (non-equilibrated), the “Maximum inhibition of NADH: ferricyanide reductase activity in microsomes, NE form” value was 77 ± 2%. For the same compound, the “Superoxide anion production of microsomes in presence of compound, NE form” value in data set [4] was found to be 1.4 ± 0.1 µM/min. Besides, the “Quinoidal base disappeared, forming the trans-chalcone” value in data set [5] is “ca. 40%”.

`O=c1cc(-c2ccc(O)cc2)oc2cc(O)cc(O)c12` [apigenin]: in data set [1], the IC50 was 36 µM.

`Oc1cc(O)c2c(c1)O[C@H](c1ccc(O)c(O)c1)[C@H](O)C2` [epicatechin]: the IC50 in data set [1] is 3.2 µM.

For the compound `O=c1cc(-c2ccc(O)c(O)c2)oc2cc(O)cc(O)c12` [luteolin], the IC50 in data set [1] is 0.11 µM.
